This is an account of results in patent US20260355225A1 (priority 2022, published 2026).

The assay deals with SARS-CoV-2. Description: Antiviral assay, inhibition of virus-induced cytopathic effect (CPE) of SARS-CoV-2 by MTT assay (Example 1). Conditions: Severe acute respiratory syndrome coronavirus 2, Vero C1008, SARS-CoV-2, Vero E6 (CPE & MTT). (Protection from cytopathic effect is a common read-out in antiviral testing.)

On to `O=C[C@H](O)[C@@H](O)[C@H](O)CO` [D-xylose], for which the IC50 is, setting by setting: (administration at the same time as the virus) 26.2 mM; (preincubation with cells 6 h before infection) 95.5 mM.

In general, IC50 refers to the concentration that inhibits the measured activity by half. Lower therefore signals higher potency.
